Assay results taken from PMC11845477, “Exploring the principles behind antibiotics with limited resistance” (Nature Communications, 2025).

Experiments:
[1] = system: E. coli ATCC 25922 (SEN) and E. coli NCTC13846 (MDR); test: microbe, parasite or virus in culture; assay type: cell-based, Escherichia coli; details: for MIC: Escherichia coli, across three biological replicates
Description: (§1) This study focused on multiple bacterial strains, as follows. For the FoR and ALE experiments, 2 strains per species were chosen: E. coli ATCC 25922, K. pneumoniae ATCC 10031, A. baumannii ATCC 17978, and P. aeruginosa ATCC BAA-3107 as sensitive (SEN) strains, and E. coli NCTC13846, K. pneumoniae ATCC 700603, A. baumannii ATCC BAA-1605 and P. aeruginosa LESB58 as multi-drug resistant (MDR) strains. Functional metagenomic screens were performed with E. coli ATCC 25922 and K. pneumoniae ATCC 10031 strains. To determine the dose-kill properties of the different antibiotics, an E. coli strain (ATCC 25922) expressing a yellow fluorescent protein (pZS2R, YFP, CHL^R) and a red fluorescent protein (pZS2R, mCherry, CHL^R) was used.
(§2) Unless otherwise indicated, cation-adjusted Mueller-Hinton Broth 2 (MHB, Millipore) medium was used throughout the study, except for SCH79797 (SCH).
(§3) A robotic liquid handling system was used to automatically prepare a 11 to 16-step serial dilution in 384-well microtiter plates (Greiner). A final concentration of 5 × 10^5 bacterial cells per mL were inoculated into each well containing 60 µL MHB medium. Bacterial cultures were incubated at 37 °C with continuous shaking (Infors shaker, 900 rpm with 3 mm throw) for 18 hours (2 replicates from each). Cell growth was monitored by measuring the optical density (OD600 values, using Biotek Synergy microplate reader). MIC was defined as the antibiotic concentration of complete growth inhibition (i.e., OD600 < 0.05). Relative MIC was calculated as follows:1 relativeMIC=MICevolved/MICancestor

[2] = system: K. pneumoniae ATCC 10031 (SEN) and K. pneumoniae ATCC 700603 (MDR); test: microbe, parasite or virus in culture; assay type: cell-based, Klebsiella pneumoniae; details: for MIC of ancestor: ancestor strain; for MIC: Klebsiella pneumoniae, across three biological replicates
Description: as §1, §2, §3

[3] = system: P. aeruginosa ATCC BAA-3107 (SEN) and P. aeruginosa LESB58 (MDR); test: microbe, parasite or virus in culture; assay type: cell-based, Pseudomonas aeruginosa; details: for MIC: Pseudomonas aeruginosa, across three biological replicates
Description: as §1, §2, §3

[4] = system: E. coli ATCC 25922 (SEN) and E. coli NCTC13846 (MDR); test: Adaptive laboratory evolution (ALE), relative MIC of evolved lines; assay type: cell-based, Escherichia coli
Excerpt: Using the same set of bacterial strains, we initiated adaptive laboratory evolution with the aim to maximize the level of antibiotic resistance in the populations achieved during a longer, but fixed time period.
An established protocol for adaptive laboratory evolution[46],[73] was followed to propagate populations with the highest resistance levels. Starting with an antibiotic concentration that caused approximately 50% growth inhibition, ten parallel populations for each antibiotic-ancestor strain combination were grown for 72 hours at 37 °C with continuous shaking (300 RPM). MHB broth medium was used unless stated otherwise. After each incubation, 20 µl of each culture was transferred to four new wells containing fresh medium with increasing antibiotic concentrations (0.5×, 1×, 1.5×, and 2.5× the previous concentration) in a chessboard layout to monitor potential cross-contamination. Growth was monitored by measuring OD600 using a Biotek Synergy 2 microplate reader, and only populations grown in the highest drug concentration with an OD600 > 0.2 were transferred further.
as §3, with “relativeMIC=MICevolved/MICancestor […]” for “relativeMIC=MICevolved/MICancestor”
Supplementary Figure 4. Resistance levels following adaptive laboratory evolution across bacterial strains. The level of resistance was measured as the fold change in relative MIC between evolved and ancestral strains after ~60 days of adaptive laboratory evolution. Data are grouped by bacterial strain (A. baumannii (AB), E. coli (EC), K. pneumoniae (KP), and P. aeruginosa (PA)) and categorized as either multidrug-resistant (MDR) or sensitive (SEN). Each data point represents a laboratory evolved line, and boxplots show the median, first and third quartiles, with whiskers indicating the 5th and 95th percentiles.
Statistical analysis was performed using two-sided Dunn’s post-hoc test with Benjamini-Hochberg correction for multiple comparisons (****/ ***/ **/ * indicates p < 0.0001/ 0.001/ 0.01/ 0.05). For detailed information on antibiotic and bacterial species, see Supplementary Table 1. For mode of action groups, refer to Table 1. Source data are provided as a Source Data file.
(1 picture or pasted object on this page, not shown here)

[5] = Klebsiella pneumoniae ATCC 700603 (KP-MDR)

## CN(C)[C@@H]1C(O)=C(C(N)=O)C(=O)[C@@]2(O)C(O)=C3C(=O)c4c(O)c(NC(=O)CN5CCCC5)cc(F)c4C[C@H]3C[C@@H]12 [Eravacycline]
[1]; E. coli NCTC 13846 (EC-MDR), ancestor strain, sheet fig 2a
  MIC of ancestor: 1 µg/mL
[1]; EC-SEN, Escherichia coli ATCC 25922, ancestor strain
  MIC of ancestor: 0.125 µg/mL
[1]; Escherichia coli ATCC 25922 (EC-SEN), ancestor strain, sheet fig 2a
  MIC of ancestor: 0.125 µg/mL
[1]; Escherichia coli NCTC 13846 (EC-MDR), ancestor strain
  MIC of ancestor: 1 µg/mL
[1]; Escherichia coli ATCC 25922 (EC-SEN)
  MIC: 0.125 µg/mL
[1]; Escherichia coli NCTC 13846 (EC-MDR)
  MIC: 1 µg/mL
[2]; K. pneumoniae ATCC 10031 (KP-SEN)
  MIC of ancestor: 0.0312 µg/mL
[2]; Klebsiella pneumoniae ATCC 10031 (KP-SEN), sheet fig 2a
  MIC of ancestor: 0.0312 µg/mL
[2]; [5]
  MIC of ancestor: 4 µg/mL
  MIC: 4 µg/mL
[2]; Klebsiella pneumoniae ATCC 700603 (KP-MDR), sheet fig 2a
  MIC of ancestor: 4 µg/mL
[2]; Klebsiella pneumoniae ATCC 10031 (KP-SEN)
  MIC: 0.0312 µg/mL
[3]; P. aeruginosa ATCC BAA 3107 (PA-SEN), ancestor strain, sheet fig 2a
  MIC of ancestor: 4 µg/mL
[3]; PA-SEN, Pseudomonas aeruginosa ATCC BAA 3107, ancestor strain
  MIC of ancestor: 4 µg/mL
[3]; ATCCBAA3107, Pseudomonas aeruginosa ATCC BAA-3107 (PA-SEN)
  MIC: 4 µg/mL
[3]; ATCCBAA3107, Pseudomonas aeruginosa LESB 58 (PA-MDR)
  MIC: 32 µg/mL
[4]; EC-MDR (Escherichia coli NCTC 13846), evolved line 1 adapted to the named antibiotic
  Relative MIC (log10): 1.505
[4]; EC-MDR (Escherichia coli NCTC 13846), evolved line 3 adapted to the named antibiotic
  Relative MIC (log10): 1.204
[4]; EC-MDR (Escherichia coli NCTC 13846), evolved line 4 adapted to the named antibiotic
  Relative MIC (log10): 1.204
[4]; EC-MDR (Escherichia coli NCTC 13846), evolved line 7 adapted to the named antibiotic
  Relative MIC (log10): 1.204
[4]; EC-MDR (Escherichia coli NCTC 13846), evolved line 9 adapted to the named antibiotic
  Relative MIC (log10): 1.505
[4]; EC-MDR (NCTC 13846), evolved line 1, MIC of evolved line / MIC of ancestor
  Relative MIC: 32
[4]; EC-MDR (NCTC 13846), evolved line 2, MIC of evolved line / MIC of ancestor
  Relative MIC: 16
[4]; EC-MDR (NCTC 13846), evolved line 3, MIC of evolved line / MIC of ancestor
  Relative MIC: 16
[4]; EC-MDR (NCTC 13846), evolved line 4, MIC of evolved line / MIC of ancestor
  Relative MIC: 16
[4]; EC-MDR (NCTC 13846), evolved line 5, MIC of evolved line / MIC of ancestor
  Relative MIC: 8
[4]; EC-MDR (NCTC 13846), evolved line 7, MIC of evolved line / MIC of ancestor
  Relative MIC: 16
[4]; EC-MDR (NCTC 13846), evolved line 8, MIC of evolved line / MIC of ancestor
  Relative MIC: 16
[4]; EC-MDR (NCTC 13846), evolved line 9, MIC of evolved line / MIC of ancestor
  Relative MIC: 32
[4]; EC-MDR (NCTC 13846), evolved line 10, MIC of evolved line / MIC of ancestor
  Relative MIC: 8
[4]; EC-SEN (ATCC 25922), evolved line 1, MIC of evolved line / MIC of ancestor
  Relative MIC: 64
[4]; EC-SEN (ATCC 25922), evolved line 2, MIC of evolved line / MIC of ancestor
  Relative MIC: 16
[4]; EC-SEN (Escherichia coli ATCC 25922), evolved line 1 adapted to the named antibiotic
  Relative MIC (log10): 1.806
[4]; EC-SEN (Escherichia coli ATCC 25922), evolved line 4 adapted to the named antibiotic
  Relative MIC (log10): 1.204
[4]; EC-SEN (Escherichia coli ATCC 25922), evolved line 7 adapted to the named antibiotic
  Relative MIC (log10): 1.204
[4]; EC-SEN (Escherichia coli ATCC 25922), evolved line 8 adapted to the named antibiotic
  Relative MIC (log10): 1.204
[4]; EC-SEN, Escherichia coli ATCC 25922, evolved line 3 versus ancestor
  Relative MIC: 8
[4]; EC-SEN, Escherichia coli ATCC 25922, evolved line 4 versus ancestor
  Relative MIC: 16
[4]; EC-SEN, Escherichia coli ATCC 25922, evolved line 6 versus ancestor
  Relative MIC: 8
[4]; EC-SEN, Escherichia coli ATCC 25922, evolved line 7 versus ancestor
  Relative MIC: 16
[4]; EC-SEN, Escherichia coli ATCC 25922, evolved line 8 versus ancestor
  Relative MIC: 16
[4]; EC-SEN, Escherichia coli ATCC 25922, evolved line 9 versus ancestor
  Relative MIC: 16
[4]; EC-SEN, Escherichia coli ATCC 25922, evolved line 10 versus ancestor
  Relative MIC: 32
[4]; Escherichia coli ATCC 25922 (EC-SEN), evolved line 1
  Relative MIC: 64
[4]; Escherichia coli ATCC 25922 (EC-SEN), evolved line 2
  Relative MIC: 16
[4]; Escherichia coli ATCC 25922 (EC-SEN), evolved line 3
  Relative MIC: 8
[4]; Escherichia coli ATCC 25922 (EC-SEN), evolved line 4
  Relative MIC: 16
[4]; Escherichia coli ATCC 25922 (EC-SEN), evolved line 6
  Relative MIC: 8
[4]; Escherichia coli ATCC 25922 (EC-SEN), evolved line 7
  Relative MIC: 16
[4]; Escherichia coli ATCC 25922 (EC-SEN), evolved line 8
  Relative MIC: 16
[4]; Escherichia coli ATCC 25922 (EC-SEN), evolved line 9
  Relative MIC: 16
[4]; Escherichia coli ATCC 25922 (EC-SEN), evolved line 10
  Relative MIC: 32
[4]; Escherichia coli NCTC 13846 (EC-MDR), evolved line 1
  Relative MIC: 32
[4]; Escherichia coli NCTC 13846 (EC-MDR), evolved line 2
  Relative MIC: 16
[4]; Escherichia coli NCTC 13846 (EC-MDR), evolved line 3
  Relative MIC: 16
[4]; Escherichia coli NCTC 13846 (EC-MDR), evolved line 4
  Relative MIC: 16
[4]; Escherichia coli NCTC 13846 (EC-MDR), evolved line 5
  Relative MIC: 8
[4]; Escherichia coli NCTC 13846 (EC-MDR), evolved line 7
  Relative MIC: 16
[4]; Escherichia coli NCTC 13846 (EC-MDR), evolved line 8
  Relative MIC: 16
[4]; Escherichia coli NCTC 13846 (EC-MDR), evolved line 9
  Relative MIC: 32
[4]; Escherichia coli NCTC 13846 (EC-MDR), evolved line 10
  Relative MIC: 8
